Target: T1, M2 muscarinic receptor (Rattus norvegicus, UniProt P10980)
T1 construct: Submandibular glands and heart were isolated and placed in ice cold homogenizing buffer; from tissue; host or cells: rat heart membrane homogenate
T1 sequence (P10980 1-466): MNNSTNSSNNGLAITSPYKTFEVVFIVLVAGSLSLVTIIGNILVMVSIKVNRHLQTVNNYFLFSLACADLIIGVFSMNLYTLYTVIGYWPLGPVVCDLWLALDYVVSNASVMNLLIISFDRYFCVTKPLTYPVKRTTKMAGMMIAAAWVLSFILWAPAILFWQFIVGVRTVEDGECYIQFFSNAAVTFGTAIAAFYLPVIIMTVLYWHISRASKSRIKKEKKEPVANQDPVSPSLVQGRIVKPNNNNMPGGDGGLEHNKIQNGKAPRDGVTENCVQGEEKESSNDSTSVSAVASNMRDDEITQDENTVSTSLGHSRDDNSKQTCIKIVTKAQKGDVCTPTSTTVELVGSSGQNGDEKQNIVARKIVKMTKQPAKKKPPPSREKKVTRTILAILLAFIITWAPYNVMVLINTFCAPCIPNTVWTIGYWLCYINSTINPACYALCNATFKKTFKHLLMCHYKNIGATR
Test: Radioligand binding assay, [3H]-N-methylscopolamine, rat heart membranes
Conditions: [3H]NMS binding

SMILES | Ki [nM]
Cc1ccc(O)c(C(CCN2CC3CC3C2)c2ccccc2)c1 (stereo not drawn) [Compound No. 2, 1-(3-azabicyclo[3.1.0]hex-3-yl)-3-(2-hydroxy-5-methylphenyl)-3-phenyl propane] | 105
Cc1ccc(O)c(C(CCN2CC3CC3C2C)c2ccccc2)c1 (single isomer, unassigned) [Compound No. 9, 1-(2-methyl-3-azabicyclo[3.1.0]hex-3-yl)-3-(2-hydroxy-5-methylphenyl)-3-phenyl propane] | 42
Cc1ccc(OCc2ccccc2)c(C(CCN2CC3(C)CC3(C)C2)c2ccccc2)c1 (stereo not drawn) [Compound No. 3, 1-(1,5-dimethyl-3-azabicyclo[3.1.0]hex-3-yl)-3-(2-benzyloxy-5-methylphenyl)-3-phenyl propane] | > 10000
Cc1ccc(O)c(C(CCN2CC3(C)CC3(C)C2)c2ccccc2)c1 (stereo not drawn) [Compound No. 4, 1-(1,5-dimethyl-3-azabicyclo[3.1.0]hex-3-yl)-3-(2-hydroxy-5-methylphenyl)-3-phenyl propane] | > 1000
Cc1ccc(O)c(C(CCN2CC3CC3C2C)c2ccccc2)c1 (single isomer, unassigned) [Compound No. 8, 1-(2-methyl-3-azabicyclo[3.1.0]hex-3-yl)-3-(2-hydroxy-5-methylphenyl)-3-phenyl propane] | 34
Cc1ccc(O)c(C(CCN2CC3CC3(C)C2)c2ccccc2)c1 (stereo not drawn) [Compound No. 6, 1-(1-methyl-3-azabicyclo[3.1.0]hex-3-yl)-3-(2-hydroxy-5-methylphenyl)-3-phenyl propane] | 221

Reference: patent US7410993B2, “3,6-disubstituted azabicyclo [3.1.0] hexane deriviatives useful as muscarinic receptor antagonists” (Ranbaxy Laboratories Limited, priority 2002, dated 2008)
